Source: patent US6916831B2, “Flavone acetic acid analogs and methods of use thereof” (The University of North Carolina at Chapel Hill, priority 2003, dated 2005)
≈ marks a conversion by molar mass, not a printed value. Where two headings read alike, the source gives them in different places. One block for each compound: values may come before it.

Legend:
[1] = system: human breast cancer (MCF-7); test: Cytotoxicity, SRB assay, MCF-7 cells; assay type: cell-based; conditions: 50% reduction in adsorbance at 562 nm relative to untreated cells
Method: (§1) Compounds 2-4 and 9-12 were evaluated in a tubulin polymerization assay and for cytotoxicity. Tubulin polymerization assays were performed as described in Y. Xia et al., J. Med. Chem. 1998, 41, 1155. Cytotoxic assays were performed as described in L. Rubinstein et al., J. Natl. Cancer Inst. 1990, 82, 1113-8.

[2] = system: human melanoma cancer (SKMEL-2); test: Cytotoxicity, SRB assay, SKMEL-2 cells; assay type: cell-based; conditions: 50% reduction in adsorbance at 562 nm relative to untreated cells
Method: as §1

tubulin polymerization = test: Tubulin polymerization assay (ITP); assay type: biochemical; conditions: for IC50: concentration that inhibits the extent of assembly by 50% after 20 min at 30° C.
Method: as §1

[3] = system: human ovarian cancer (1A9); test: Cytotoxicity, SRB assay, 1A9 cells; assay type: cell-based; conditions: 50% reduction in adsorbance at 562 nm relative to untreated cells
Method: (§2) Cytotoxic assays were performed as described in L. Rubinstein et al., J. Natl. Cancer Inst.

human lung cancer (A549) = test: Cytotoxicity, SRB assay, A549 cells; assay type: cell-based; conditions: 50% reduction in adsorbance at 562 nm relative to untreated cells
Method: as §1

[4] = system: human epidermoid carcinoma of the nasopharynx (KB); test: Cytotoxicity, SRB assay, KB cells; assay type: cell-based; conditions: for ED50 KB: SRB assay, 50% reduction in adsorbance at 562 nm relative to untreated cells; for number in parentheses after the ED50 bound, KB: not defined in the patent, stands after the highest concentration (>20 or >10 μg/mL)
Method: as §1

bone carcinoma (HOS) = test: Cytotoxicity, SRB assay, HOS cells; assay type: cell-based, human; conditions: 50% reduction in adsorbance at 562 nm relative to untreated cells
Method: as §1

[5] = system: seven human tumor cell lines; test: Cytotoxicity against seven human tumor cell lines (panel); assay type: cell-based; conditions: seven human tumor cell lines: epidermoid, bone, ovarian, glioblastoma, melanoma, lung, breast
Method: as §2

[6] = system: glioblastoma carcinoma (U-87-MG); test: Cytotoxicity, SRB assay, U-87-MG cells; assay type: cell-based, human; conditions: 50% reduction in adsorbance at 562 nm relative to untreated cells
Method: as §1

[7] = system: xenograft ovarian OVCAR-3; conditions: treated mice, xenograft ovarian OVCAR-3 model; cited from earlier work

Compound: O=C(O)Cc1cccc2[nH]c(-c3ccccc3F)cc(=O)c12 [Compound 2]
ED50 MCF-7 [1]: > 20 µg/mL
ED50 SKMEL-2 [2]: > 20 µg/mL
activity in the tubulin polymerization assay (in words) (tubulin polymerization): totally inactive
IC50 (tubulin polymerization): > 40 µM
ED50 A549 (human lung cancer (A549)): > 20 µg/mL

Compound: O=c1cc(-c2ccccc2F)[nH]c2cc3c(cc12)OCO3 [Compound 1]
increase in life span [7]: 130%

Compound: COC(=O)Cc1cccc2c(=O)cc(-c3ccccc3)[nH]c12 [Compound 9, 2-Phenyl-4-quinolone-8-methyl acetate]
ED50 MCF-7 [1]: > 20 µg/mL
melting point: 76 to 78 °C
ED50 SKMEL-2 [2]: > 20 µg/mL
IC50 (tubulin polymerization): > 40 µM
ED50 1A9 [3]: > 20 µg/mL
ED50 HOS (bone carcinoma (HOS)): > 20 µg/mL
ED50 KB [4]: > 20 µg/mL
number in parentheses after the ED50 bound, KB [4]: 8

Compound: O=C(O)Cc1cccc2c1N=C(c1ccccc1F)CC2=O [Compound 12, 2-(2′-Fluorophenyl)-4-quinolone-8-acetic acid]
ED50 MCF-7 [1]: 0.12 µg/mL (≈ 0.404 µM)
melting point: 243 to 245 °C
ED50 SKMEL-2 [2]: 0.05 µg/mL (≈ 0.168 µM)
activity in the tubulin polymerization assay (in words) (tubulin polymerization): not inhibitors of tubulin polymerization
IC50 (tubulin polymerization): > 40 µM
ED50 1A9 [3]: 0.02 µg/mL (≈ 0.0673 µM)
ED50 HOS (bone carcinoma (HOS)): 0.04 µg/mL (≈ 0.135 µM)
cytotoxicity in vitro (in words) [5]: extremely potent
ED50 U87-MG [6]: 0.07 µg/mL (≈ 0.235 µM)
ED50 A549 (human lung cancer (A549)): 0.06 µg/mL (≈ 0.202 µM)
ED50 KB [4]: 0.03 µg/mL (≈ 0.101 µM)

Compound: COC(=O)Cc1cccc2c(O)cc(-c3ccccc3F)nc12 [Compound 10]
ED50 MCF-7 [1]: > 10 µg/mL
ED50 SKMEL-2 [2]: > 10 µg/mL
fold more active in the tubulin polymerization assay (tubulin polymerization; compound 10 relative to the inactive 9 and 12 (IC50>40 μM)): about 4 fold
IC50 (tubulin polymerization): ~10 µM
ED50 1A9 [3]: 7.50 µg/mL (≈ 24.1 µM)
ED50 HOS (bone carcinoma (HOS)): > 10 µg/mL
cytotoxicity in vitro (in words) [5]: selective activity against ovarian cancers
ED50 A549 (human lung cancer (A549)): > 10 µg/mL
ED50 KB [4]: > 10 µg/mL
number in parentheses after the ED50 bound, KB [4]: 29

Second part, led by results:

IC50 (tubulin polymerization): 20 to 40 µM
Compound: O=C(O)Cc1ccc2c(=O)cc(-c3ccccc3F)[nH]c2c1 [Compound 4]
ED50 MCF-7 [1]: > 20 µg/mL
ED50 SKMEL-2 [2]: > 20 µg/mL
activity in the tubulin polymerization assay (in words) (tubulin polymerization): totally inactive
ED50 1A9 [3]: > 20 µg/mL
ED50 A549 (human lung cancer (A549)): > 20 µg/mL
ED50 KB [4]: > 20 µg/mL
number in parentheses after the ED50 bound, KB [4]: 8

IC50 (tubulin polymerization): > 40 µM
Compound: O=C(O)Cc1cccc2c1N=C(c1ccccc1)CC2=O [Compound 11, 2-Phenyl-4-quinolone-8-acetic acid]
ED50 MCF-7 [1]: 0.44 µg/mL (≈ 1.58 µM)
ED50 SKMEL-2 [2]: 0.06 µg/mL (≈ 0.215 µM)
activity in the tubulin polymerization assay (in words) (tubulin polymerization): totally inactive
activity in the tubulin polymerization assay (in words) (tubulin polymerization; listed as 2-Phenyl-4-quinolone-8-acetic acid): not inhibitors of tubulin polymerization
ED50 1A9 [3]: 0.04 µg/mL (≈ 0.143 µM)
ED50 HOS (bone carcinoma (HOS)): 0.07 µg/mL (≈ 0.251 µM)
cytotoxicity in vitro (in words) [5]: extremely potent
ED50 U87-MG [6]: 0.12 µg/mL (≈ 0.43 µM)
ED50 A549 (human lung cancer (A549)): 0.11 µg/mL (≈ 0.394 µM)
ED50 KB [4]: 0.04 µg/mL (≈ 0.143 µM)

IC50 (tubulin polymerization): 10 to 20 µM
Compound: 2-Phenyl-4-quinolone-6-acetic acid [Compound 3]
ED50 MCF-7 [1]: > 20 µg/mL
ED50 SKMEL-2 [2]: > 20 µg/mL
ED50 1A9 [3]: > 20 µg/mL
ED50 HOS (bone carcinoma (HOS)): > 20 µg/mL
ED50 U87-MG [6]: > 20 µg/mL
ED50 A549 (human lung cancer (A549)): > 20 µg/mL
ED50 KB [4]: > 20 µg/mL
number in parentheses after the ED50 bound, KB [4]: 36
